According to patent publication US20260083865A1, “PROSTATE SPECIFIC MEMBRANE ANTIGEN (PSMA) LIGANDS AND USE THEREOF” (priority 2022, published 2026):
Where two headings read alike, the source gives them in different places. Numbered stars: 1 amine (or outer) side, 2 acyl side, 3 side chain; on linkers, the order of the positions; unused ones are H or OH. Bridge positions count the residues as written; N and C are the ends. Square brackets hold non-standard residues; d marks the D form. Peptide text beside a SMILES is read from it. * marks the point of attachment. TtdsdLys(DOTA)NH2 = NC(=O)[C@@H](CCCCNC(=O)CN1CCN(CC(=O)O)CCN(CC(=O)O)CCN(CC(=O)O)CC1)NC(=O)CCC(=O)NCCCOCCOCCOCCCN*; DOTA = O=C(O)CN1CCN(CC(=O)O)CCN(CC(=O)*)CCN(CC(=O)O)CC1; Phe(3,4-Cl2) = N[C@@H](Cc1ccc(Cl)c(Cl)c1)C(=O)O; Phe(3-CF3) = N[C@@H](Cc1cccc(C(F)(F)F)c1)C(=O)O; Phe(4-Cl) = N[C@@H](Cc1ccc(Cl)cc1)C(=O)O; X4 = O=C(CN1CCC(N[*:1])CC1)[*:2]; X1 = O=C(CC1CCN([*:1])CC1)[*:2]; Cit = NC(=O)NCCC[C@H](N)C(=O)O; Tle = CC(C)(C)[C@H](N)C(=O)O; 4Amb = NCc1ccc(C(=O)O)cc1; Aib = CC(C)(N)C(=O)O

Experiments:
[1] = molecular target: T1, Fc-fusion protein of human PSMA (hPSMA-Fc) (Homo sapiens, UniProt Q04609); assay: Surface plasmon resonance assay (Biacore T200, single cycle kinetic); type: binding; conditions: hPSMA-Fc, 25° C., read-out: pKD CAT (converted)
T1 construct: purchased Acro Biosystems PSA-H5264
T1 sequence (Q04609 44-750 limits assumed): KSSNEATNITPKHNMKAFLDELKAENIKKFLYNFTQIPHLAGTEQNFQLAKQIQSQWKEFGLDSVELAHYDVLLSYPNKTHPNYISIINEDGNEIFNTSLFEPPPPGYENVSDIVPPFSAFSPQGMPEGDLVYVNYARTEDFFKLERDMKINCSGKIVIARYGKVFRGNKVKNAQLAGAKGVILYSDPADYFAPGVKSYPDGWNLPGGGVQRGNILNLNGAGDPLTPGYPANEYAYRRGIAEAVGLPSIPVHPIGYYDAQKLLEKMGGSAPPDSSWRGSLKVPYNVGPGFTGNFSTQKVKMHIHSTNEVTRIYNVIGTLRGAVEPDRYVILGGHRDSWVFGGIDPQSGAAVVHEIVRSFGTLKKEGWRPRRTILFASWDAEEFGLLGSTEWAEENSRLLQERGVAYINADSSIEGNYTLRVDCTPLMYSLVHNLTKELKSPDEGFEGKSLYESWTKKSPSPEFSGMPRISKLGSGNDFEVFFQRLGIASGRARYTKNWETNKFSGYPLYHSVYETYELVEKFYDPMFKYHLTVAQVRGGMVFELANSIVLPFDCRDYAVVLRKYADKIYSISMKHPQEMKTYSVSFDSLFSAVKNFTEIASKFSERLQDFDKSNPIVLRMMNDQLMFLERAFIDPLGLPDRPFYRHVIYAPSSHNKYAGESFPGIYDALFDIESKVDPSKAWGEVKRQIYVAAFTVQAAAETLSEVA
Procedure, shortened: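 hPSMA-Fc was captured (~1000 RU) on an Fc-binding-peptide CM5 chip, and compounds were run in single cycle kinetic mode at 25° C in HBST with 0.1% DMSO. Double-blank-corrected sensorgrams were fitted to a 1:1 Langmuir model to give KD, reported as pKD.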

[2] = molecular target: T2, PSMA-expressing C4-2 cells (Homo sapiens, UniProt Q04609); assay: FACS binding assay (competition with 50 nM PSM-0183); conditions: FACS binding, read-out: pIC50 [C4-2] CAT (converted)
T2 construct: PSMA-expressing C4-2 cells (ATCC, Cat. No. CRL-3314) were cultured in RPMI-1640; host or cells: C4-2 cells
T2 sequence (Q04609 whole entry): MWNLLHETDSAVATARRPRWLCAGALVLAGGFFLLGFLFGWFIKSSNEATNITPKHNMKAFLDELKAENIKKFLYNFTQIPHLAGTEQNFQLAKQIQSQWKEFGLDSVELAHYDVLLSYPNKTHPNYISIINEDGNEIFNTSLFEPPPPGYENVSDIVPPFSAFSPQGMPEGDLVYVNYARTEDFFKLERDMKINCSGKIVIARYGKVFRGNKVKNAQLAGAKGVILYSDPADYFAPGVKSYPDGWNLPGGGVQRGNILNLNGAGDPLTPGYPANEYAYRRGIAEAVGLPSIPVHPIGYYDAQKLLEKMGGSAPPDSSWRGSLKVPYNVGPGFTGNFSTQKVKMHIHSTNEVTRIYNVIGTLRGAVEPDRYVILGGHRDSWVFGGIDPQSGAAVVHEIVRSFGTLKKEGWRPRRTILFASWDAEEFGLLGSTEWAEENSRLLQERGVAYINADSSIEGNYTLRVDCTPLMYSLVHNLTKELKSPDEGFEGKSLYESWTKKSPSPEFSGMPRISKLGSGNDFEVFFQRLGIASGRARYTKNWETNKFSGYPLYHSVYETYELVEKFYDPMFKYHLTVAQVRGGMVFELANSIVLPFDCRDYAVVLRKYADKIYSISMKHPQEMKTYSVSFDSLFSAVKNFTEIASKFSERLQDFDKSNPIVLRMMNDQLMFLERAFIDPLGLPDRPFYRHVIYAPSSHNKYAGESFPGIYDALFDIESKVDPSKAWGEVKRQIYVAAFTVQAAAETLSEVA
Procedure, shortened: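 C4-2 cells were incubated 1 h at 4 °C with 50 nM AF488-labelled peptide PSM-0183 plus increasing test compound concentrations, then washed twice in ice-cold buffer. Median fluorescence in the AF488 channel was read by flow cytometry. IC50/pIC50 was derived by 4PL fitting of MFI versus concentration.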

[3] = SPR, single cycle kinetic, category
[4] = C4-2 cells, competition with 50 nM PSM-0183, category
[5] = PSMA-expressing C4-2 cells, pIC50 category

| SMILES | Kd [1, 3] [nM] | IC50 [2, 4] [nM] | Kd ([1]; PSMA SPR assay, pKD category) [nM] | IC50 [2, 5] [nM] |
| --- | --- | --- | --- | --- |
| C[C@@H](O)[C@H](NC(=O)[C@@H](NC(=O)[C@@H]1CSSC[C@H](NC(=O)[C@H](Cc2ccccc2)NC(=O)C(C)(C)NC(=O)CN2CCC(NC(=O)CN3CCN(CC(=O)O)CCN(CC(=O)O)CCN(CC(=O)O)CC3)CC2)C(=O)N[C@@H](CCCCN)C(=O)N[C@@H](CCCNC(=N)N)C(=O)NC(C)(C)C(=O)N[C@@H](CC(N)=O)C(=O)N1)C(C)(C)C)C(N)=O [PSM-0261, DOTA-APAc-Aib-Phe-[Cys-Lys-Arg-Aib-Asn-Cys]-Tle-Thr-NH2] ({DOTA}-[X4][Aib]FCKR[Aib]NC[Tle]T-NH2; disulfide 4-9) | 12.6 to 126 | < 200 |  |  |
| CC(=O)N[C@H](C(=O)NC(C)(C)C(=O)N[C@@H](Cc1ccccc1)C(=O)N[C@H]1CSSC[C@@H](C(=O)N[C@H](C(=O)N[C@@H](CCC(=O)O)C(N)=O)C(C)(C)C)NC(=O)[C@H](CC(N)=O)NC(=O)C(C)(C)NC(=O)[C@H](CCCNC(=N)N)NC(=O)[C@H](CCCCN)NC1=O)[C@@H](C)O [PSM-0262, Ac-Thr-Aib-Phe-[Cys-Lys-Arg-Aib-Asn-Cys]-Tle-Glu-NH2] (Ac-T[Aib]FCKR[Aib]NC[Tle]E-NH2; disulfide 4-9) | < 12.6 | < 200 |  |  |
| C[C@@H](O)[C@H](NC(=O)[C@@H](NC(=O)[C@@H]1CSSC[C@H](NC(=O)[C@H](Cc2ccc(Cl)cc2)NC(=O)C(C)(C)NC(=O)CN2CCC(NC(=O)CN3CCN(CC(=O)O)CCN(CC(=O)O)CCN(CC(=O)O)CC3)CC2)C(=O)N[C@@H](CCCCN)C(=O)N[C@@H](CCCNC(=N)N)C(=O)NC(C)(C)C(=O)N[C@@H](CC(N)=O)C(=O)N1)C(C)(C)C)C(N)=O [PSM-0263] ({DOTA}-[X4][Aib][Phe(4-Cl)]CKR[Aib]NC[Tle]T-NH2; disulfide 4-9) | < 12.6 | < 200 |  |  |
| CC(=O)N[C@H](C(=O)NC(C)(C)C(=O)N[C@@H](Cc1cccc(C(F)(F)F)c1)C(=O)N[C@H]1CSSC[C@@H](C(=O)N[C@H](C(=O)N[C@H](C(N)=O)[C@@H](C)O)C(C)(C)C)NC(=O)[C@H](CC(N)=O)NC(=O)C(C)(C)NC(=O)[C@H](CCCNC(=N)N)NC(=O)[C@H](CCCCN)NC1=O)[C@@H](C)O [PSM-0264, Ac-Thr-Aib-Mtf-[Cys-Lys-Arg-Aib-Asn-Cys]-Tle-Thr-NH2] (Ac-T[Aib][Phe(3-CF3)]CKR[Aib]NC[Tle]T-NH2; disulfide 4-9) | < 12.6 | < 200 |  |  |
| CC(=O)N[C@H](C(=O)N[C@@H](C)C(=O)N[C@@H](Cc1ccccc1)C(=O)N[C@H]1CSSC[C@@H](C(=O)N[C@H](C(=O)N[C@H](C(=O)N[C@@H](CC(=O)O)C(=O)NCCCOCCOCCOCCCNC(=O)CCC(=O)N[C@H](CCCCNC(=O)CN2CCN(CC(=O)O)CCN(CC(=O)O)CCN(CC(=O)O)CC2)C(N)=O)[C@@H](C)O)C(C)(C)C)NC(=O)[C@H](CC(N)=O)NC(=O)[C@H](C)NC(=O)[C@H](CCCNC(=N)N)NC(=O)[C@H](CCCCN)NC1=O)[C@@H](C)O [PSM-0266, Ac-Thr-Ala-Phe-[Cys-Lys-Arg-Ala-Asn-Cys]-Tle-Thr-Asp-Ttds-lys(DOTA)-NH2] (Ac-TAFCKRANC[Tle]TD-{TtdsdLys(DOTA)NH2}; disulfide 4-9) | 12.6 to 126 | < 200 |  |  |
| C[C@@H](O)[C@H](NC(=O)[C@@H](NC(=O)[C@@H]1CSSC[C@H](NC(=O)[C@H](Cc2ccccc2)NC(=O)C(C)(C)NC(=O)c2ccc(CNC(=O)CN3CCN(CC(=O)O)CCN(CC(=O)O)CCN(CC(=O)O)CC3)cc2)C(=O)N[C@@H](CCCCN)C(=O)N[C@@H](CCCNC(=N)N)C(=O)NC(C)(C)C(=O)N[C@@H](CC(N)=O)C(=O)N1)C(C)(C)C)C(N)=O [PSM-0270, DOTA-Pamb-Aib-Phe-[Cys-Lys-Arg-Aib-Asn-Cys]-Tle-Thr-NH2] ({DOTA-4Amb}-[Aib]FCKR[Aib]NC[Tle]T-NH2; disulfide 3-8) |  |  | < 12.6 | < 200 |
| C[C@@H](O)[C@H](NC(=O)[C@@H](NC(=O)[C@@H]1CSSC[C@H](NC(=O)[C@H](Cc2ccc(Cl)c(Cl)c2)NC(=O)C(C)(C)NC(=O)[C@@H](NC(=O)CC2CCN(C(=O)CN3CCN(CC(=O)O)CCN(CC(=O)O)CCN(CC(=O)O)CC3)CC2)[C@@H](C)O)C(=O)N[C@@H](CCCCN)C(=O)N[C@@H](CCCNC(N)=O)C(=O)NC(C)(C)C(=O)N[C@@H](CC(N)=O)C(=O)N1)C(C)(C)C)C(N)=O [PSM-0274, DOTA-Cmp-Thr-Aib-Eaa-[Cys-Lys-Cit-Aib-Asn-Cys]-Tle-Thr-NH2] ({DOTA}-[X1]T[Aib][Phe(3,4-Cl2)]CK[Cit][Aib]NC[Tle]T-NH2; disulfide 5-10) |  |  | 12.6 to 126 | < 200 |
